Reference: US20220079909A1, “Food Supplement For Improving Sports Performance” (NUTRIBAM BV, priority 2019, published 2022)

System: male subjects
Test: Synergetic efficiency of sulphoraphane and curcumin in four groups: training diary, HRV, RHR (Example 4)
Type: in vivo, human
Conditions: 5-day period; for muscle pain and fatigue during the day (training diary): oral daily dose, compared to the negative control (Group nC, Gatorade powder); for HRV and RHR indices (overtraining): compared to the negative control (Group nC)
Method: The synergetic efficiency of a composition comprising both sulphoraphane and curcumin, was analysed. This analysis was realized, for monitoring the performances and recuperation of subjects, after doing a daily physical activity. The monitoring was done by means of a training diary which had to be completed three times a day, as well as by measuring the 'heart rate variability' (HRV), and the 'rest hear rate' (RHR) of these subjects. The HRV was analysed under controlled laboratory circumstances, before and after doing the prescribed daily physical activity. Analogously, the RHR was analysed under controlled laboratory circumstances, before and after doing the prescribed daily physical activity. The training diary was made up of a questionnaire, which needed to be completed by means of a scale of five (scale of […]). Questions were asked about possible muscle pain of the subjects, but also for example their energy level during the different moments of the day. 37 male subjects were selected to take part in the experiment. Their physical characteristics were as follows (average and SD): age 27.6 SD:1.6 years; weight 79.3 SD:2.1 kg; length 184 SD:3 cm. The subjects were divided into 4 groups: a group receiving only curcumin (Group C, n=10) (daily dose of 50 mg), a group receiving only sulphoraphane (Group S, n=10) (daily dose 25 mg), a group receiving both curcumin and sulphoraphane (Group C+S, n=10) (the same concentrations as the controls), and finally, a negative control was included in the experiment, it comprises a group receiving a similar dose of placebo, thereto Gatorade powder was used (Group nC, n=7). Each subject was asked to take a prescribed daily dose for five successive days. Each dose was dissolved in hot water. During this period, the subjects also had to follow a similar protein diet. The whole experiment was divided into 4 time periods, here, the different groups were tested successively. Between the different time periods, a two-week period was provided in which no experiment was carried out. The different compositions were administered orally every day in the form of a powder or dispersed in a drink. The daily dose of this powder for Group C comprised […] and 950 mg of Gatorade powder. The daily dose of this powder for Group S comprised […] and 950 mg of Gatorade powder. The daily dose of this powder for Group C+S comprised 25 mg of sulphoraphane, 50 mg of curcumin and 950 mg of Gatorade powder. The daily dose of this powder for Group nC comprised 1000 mg of Gatorade powder.

SMILES	muscle pain and fatigue during the day (training diary)	HRV and RHR indices (overtraining)
COc1cc(/C=C/C(=O)CC(=O)/C=C/c2ccc(O)c(OC)c2)ccc1O [Group C, curcumin]	less muscle pain and fatigue	will probably overtrain less
C[S+]([O-])CCCCN=C=S (stereo not shown) [Group S, 1-isothiocyanato-4-methyl sulfinyl butane]	less muscle pain and fatigue	will probably overtrain less
